This assay addresses T1, TrkA (Homo sapiens, UniProt P04629).
T1 construct: aa 441-796; His; purchased Invitrogen PV3144
The assay is described as follows: Isolated TRK enzyme assay (HTRF KinEASE-TK kit), PV3144 TrkA enzyme assay. It is filed as biochemical. The gist of the method:
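Recombinant His-tagged cytoplasmic domain of human TrkA, preactivated with ATP for 20 min, then 20 min with compound before biotinylated TK substrate (1 uM final) at room temperature. HTRF read at 665/620 nm; % inhibition normalised to reference-compound and DMSO controls, IC50 from sigmoid fit, mean of replicates.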
Background: In TR-FRET formats the signal depends on donor and acceptor labels being close together.

[1] abbreviates: PV3144 TrkA enzyme assay, recombinant His-tagged cytoplasmic domain aa 441-796, 4 nM enzyme, 40 uM ATP, arithmetic mean where more than one reading, read-out: Trka enzyme (IC50).

Like-named read-outs stand apart in the source and are kept apart here.

T1 sequence (P04629 441-796): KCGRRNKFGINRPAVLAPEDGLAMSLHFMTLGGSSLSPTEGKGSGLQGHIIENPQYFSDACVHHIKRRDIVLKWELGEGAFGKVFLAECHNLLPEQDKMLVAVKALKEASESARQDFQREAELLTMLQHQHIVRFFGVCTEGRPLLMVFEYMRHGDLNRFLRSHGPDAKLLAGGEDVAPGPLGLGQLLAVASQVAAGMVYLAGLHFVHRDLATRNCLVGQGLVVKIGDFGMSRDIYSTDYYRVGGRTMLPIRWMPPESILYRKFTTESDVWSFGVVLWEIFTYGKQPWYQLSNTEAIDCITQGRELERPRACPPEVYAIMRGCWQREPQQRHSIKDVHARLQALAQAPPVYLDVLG

Turning to `Cc1cc(C(F)(F)F)nn1CC(=O)Nc1cc(C(=O)c2cn(CCO)c3ncncc23)ccn1` [Example 132, N-(4-{[7-(2-hydroxyethyl)-7H-pyrrolo[2,3-d]pyrimidin-5-yl]carbonyl}pyridin-2-yl)-2-[5-methyl-3-(trifluoromethyl)-1H-pyrazol-1-yl]acetamide], the IC50 (as a rule, the concentration at which inhibition is half-maximal) under setting [1] came out at 48.2 nM.
On the same count and under the same terms, for `CC1(n2cc(C(=O)c3cc(NC(=O)Cc4ccc(C#N)cc4)ccn3)c3cncnc32)COC1` [Example 169, 2-(4-cyanophenyl)-N-(2-{[7-(3-methyloxetan-3-yl)-7H-pyrrolo[2,3-d]pyrimidin-5-yl]carbonyl}pyridin-4-yl)acetamide] the value was 459 nM.
Same read-out and setting: to `CC(CO)(CO)n1cc(C(=O)c2cc(NC(=O)Cc3cccc(C(F)(F)F)c3)ccn2)c2cncnc21` [Example 104, N-(2-{[7-(1,3-dihydroxy-2-methylpropan-2-yl)-7H-pyrrolo[2,3-d]pyrimidin-5-yl]carbonyl}pyridin-4-yl)-2-[3-(trifluoromethyl)phenyl]acetamide] belongs 91.1 nM.
Consider `O=C(Cc1ccc(C(F)(F)F)cc1)Nc1cc(C(=O)c2cn(CCO)c3ncncc23)ccn1` [Example 141, N-(4-{[7-(2-hydroxyethyl)-7H-pyrrolo[2,3-d]pyrimidin-5-yl]carbonyl}pyridin-2-yl)-2-[4-(trifluoromethyl)phenyl]acetamide], for which, under setting [1], the IC50 was 16.4 nM.
Turning to `CC(C)(CO)n1cc(C(=O)c2cc(NC(=O)Cc3cccc(C(F)(F)F)c3)ccn2)c2cncnc21` [Example 56, N-(2-{[7-(1-hydroxy-2-methylpropan-2-yl)-7H-pyrrolo[2,3-d]pyrimidin-5-yl]carbonyl}pyridin-4-yl)-2-[3-(trifluoromethyl)phenyl]acetamide], the IC50 under setting [1] came to 6.56 nM.
The same measure, in the same setting: for `O=C(Cc1ccc(Cl)cc1)Nc1cc(C(=O)c2cn([C@H]3CC[C@H](O)CC3)c3ncncc23)ccn1` [Example 1, 2-(4-chlorophenyl)-N-(4-{[7-(trans-4-hydroxycyclohexyl)-7H-pyrrolo[2,3-d]pyrimidin-5-yl]carbonyl}pyridin-2-yl)acetamide] the value was 22.8 nM.
On the same count and under the same terms, to `Cc1cc(C(F)(F)F)nn1CC(=O)Nc1ccnc(C(=O)c2cn(C(C)C)c3nc(N)ncc23)c1` [Example 84, N-(2-{[2-amino-7-(propan-2-yl)-7H-pyrrolo[2,3-d]pyrimidin-5-yl]carbonyl}pyridin-4-yl)-2-[5-methyl-3-(trifluoromethyl)-1H-pyrazol-1-yl]acetamide] belongs 27.1 nM; to `COc1cc(C(=O)c2cn(C(C)C)c3ncncc23)cc(NC(=O)Cc2ccc(C#N)cc2)n1` [Example 165, 2-(4-cyanophenyl)-N-(6-methoxy-4-{[7-(propan-2-yl)-7H-pyrrolo[2,3-d]pyrimidin-5-yl]carbonyl}pyridin-2-yl)acetamide], 1040 nM.
For the compound `CC(C)n1cc(C(=O)c2cc(NC(=O)Cn3cc(C(F)(F)F)nn3)ccn2)c2cncnc21` [Example 79, N-(2-{[7-(propan-2-yl)-7H-pyrrolo[2,3-d]pyrimidin-5-yl]carbonyl}pyridin-4-yl)-2-[4-(trifluoromethyl)-1H-1,2,3-triazol-1-yl]acetamide], the IC50 under setting [1] is 131 nM.
The same measure, in the same setting: to `CC(C)n1cc(C(=O)c2cc(NC(=O)Cc3ccc(C#N)cn3)ccn2)c2cncnc21` [Example 109, 2-(5-Cyanopyridin-2-yl)-N-{2-[(7-isopropyl-7H-pyrrolo[2,3-d]pyrimidin-5-yl)carbonyl]pyridin-4-yl}acetamide] belongs 53.6 nM; to `Cc1ccn(CC(=O)Nc2cc(C(=O)c3cn(C(C)C)c4ncncc34)ccn2)n1` [Example 70, 2-(3-methyl-1H-pyrazol-1-yl)-N-(4-{[7-(propan-2-yl)-7H-pyrrolo[2,3-d]pyrimidin-5-yl]carbonyl}pyridin-2-yl)acetamide], 144 nM; to `O=C(Cc1ccc(F)cc1)Nc1cc(C(=O)c2cn(CCO)c3ncncc23)ccn1` [Example 145, 2-(4-fluorophenyl)-N-(4-{[7-(2-hydroxyethyl)-7H-pyrrolo[2,3-d]pyrimidin-5-yl]carbonyl}pyridin-2-yl)acetamide], 484 nM.
For the compound `Cc1cc(C)n(CC(=O)Nc2cc(C(=O)c3cn(CCO)c4ncncc34)ccn2)n1` [Example 139, 2-(3,5-dimethyl-1H-pyrazol-1-yl)-N-(4-{[7-(2-hydroxyethyl)-7H-pyrrolo[2,3-d]pyrimidin-5-yl]carbonyl}pyridin-2-yl)acetamide], the IC50 under setting [1] turned out to be 760 nM.
Turning to `CC(C)(C)n1cc(C(=O)c2cc(NC(=O)Cc3ccc(F)cn3)ccn2)c2cncnc21` [Example 37, N-{2-[(7-tert-butyl-7H-pyrrolo[2,3-d]pyrimidin-5-yl)carbonyl]pyridin-4-yl}-2-(5-fluoropyridin-2-yl)acetamide], the IC50 under setting [1] is 21 nM.
On to `CC(C)n1cc(C(=O)c2cc(NC(=O)Cc3ccc(Cl)cc3)ccn2)c2cnc(N)nc21` [Example 87, N-(2-{[2-amino-7-(propan-2-yl)-7H-pyrrolo[2,3-d]pyrimidin-5-yl]carbonyl}pyridin-4-yl)-2-(4-chlorophenyl)acetamide], for which, under setting [1], the IC50 is 6.43 nM.
On the same count and under the same terms, to `CC(C)(CO)n1cc(C(=O)c2cc(NC(=O)Cc3ccc(C(F)(F)F)cc3)ccn2)c2cncnc21` [Example 55, N-(2-{[7-(1-hydroxy-2-methylpropan-2-yl)-7H-pyrrolo[2,3-d]pyrimidin-5-yl]carbonyl}pyridin-4-yl)-2-[4-(trifluoromethyl)phenyl]acetamide] belongs 12.9 nM; to `CC(C)(CO)n1cc(C(=O)c2cc(NC(=O)Cc3ccc(Cl)cn3)ccn2)c2cnc(N)nc21` [Example 52, N-(2-{[2-amino-7-(1-hydroxy-2-methylpropan-2-yl)-7H-pyrrolo[2,3-d]pyrimidin-5-yl]carbonyl}pyridin-4-yl)-2-(5-chloropyridin-2-yl)acetamide], 73.1 nM.
For the compound `Cc1cc(C)n(CC(=O)Nc2cc(C(=O)c3cn(CC4CC4)c4ncncc34)ccn2)n1` [Example 176, N-(4-{[7-(Cyclopropylmethyl)-7H-pyrrolo[2,3-d]pyrimidin-5-yl]carbonyl}pyridin-2-yl)-2-(3,5-dimethyl-1H-pyrazol-1-yl)acetamide], the IC50 turned out to be 107 nM.
As to `Cc1cc(C(F)(F)F)nn1CC(=O)Nc1cc(C(=O)c2cn(C(C)C)c3nc(O)ncc23)ccn1` [Example 125, N-(4-{[2-hydroxy-7-(propan-2-yl)-7H-pyrrolo[2,3-d]pyrimidin-5-yl]carbonyl}pyridin-2-yl)-2-[5-methyl-3-(trifluoromethyl)-1H-pyrazol-1-yl]acetamide], under setting [1], the half-maximal inhibitory concentration (IC50) was 250 nM.
Same read-out and setting: to `Cc1ccn(CC(=O)Nc2cc(C(=O)c3cn(CCO)c4ncncc34)ccn2)n1` [Example 128, N-(4-{[7-(2-hydroxyethyl)-7H-pyrrolo[2,3-d]pyrimidin-5-yl]carbonyl}pyridin-2-yl)-2-(3-methyl-1H-pyrazol-1-yl)acetamide] belongs 1230 nM; to `CC(C)n1cc(C(=O)c2ccnc(NC(=O)Cc3ccc(C#N)cn3)c2)c2cncnc21` [Example 62, 2-(5-Cyanopyridin-2-yl)-N-{4-[(7-isopropyl-7H-pyrrolo[2,3-d]pyrimidin-5-yl)carbonyl}pyridin-2-yl]acetamide], 34.3 nM.
Same read-out and setting: to `C[C@@H](CO)n1cc(C(=O)c2cc(NC(=O)Cn3cc(C4CC4)nn3)ccn2)c2cncnc21` [Example 30, 2-(4-cyclopropyl-1H-1,2,3-triazol-1-yl)-N-[2-({7-[(2S)-1-hydroxypropan-2-yl]-7H-pyrrolo[2,3-d]pyrimidin-5-yl}carbonyl)pyridin-4-yl]acetamide] belongs 89.7 nM.

The values are drawn from patent US20150218172A1, “Pyrrolo[2,3-D]Pyrimidine Tropomyosin-Related Kinase Inhibitors” (PFIZER LIMITED, priority 2012, published 2015).
